Measurements: patent US20090042726A1, “Novel Herbicides” (SYNGENTA LIMITED, priority 2005, published 2009)

Test system: Monocotyledonous and dicotyledonous test plants
Assay: Herbicidal action, application pre-emergence (Example B1)
Type: in vivo
Design: key: 10=total damage to plant; 0=no damage to plant
Details: 1000 g/ha, evaluated after 9 or 13 days; for AGSTE herbicidal action (damage score 0-10): Agrostis-tenius; for AMARE herbicidal action (damage score 0-10): Amaranthus retroflexus; for DIGSA herbicidal action (damage score 0-10): Digitaria sanguinalis; for POATR herbicidal action (damage score 0-10): Poa trivialis; for SETIT herbicidal action (damage score 0-10): Setaria italica
Protocol: Monocotyledonous and dicotyledonous test plants were sown in sterilised standard soil in seed trays each having 96 cells. After one day (pre-emergence) under controlled conditions in a climatic chamber (cultivation at 23/17° C., day/night; 13 hours light; 50-60% humidity; after application at 24/19° C., day/night), the plants were treated with an aqueous spray solution of 1000 mg/l of the active ingredient used (including 10% DMSO as solvent). The plants were grown on in the climatic chamber until the test was evaluated (10=total damage to plant, 0=no damage to plant) after 9 or 13 days.

Cn1cc(C(F)(F)F)c(CSC2=NOC(C)(C)C2F)n1 (stereo not drawn) [4.01, 3-(4-fluoro-5,5-dimethyl-4,5-dihydro-isoxazol-3-ylsulfanyl-methyl)-1-methyl-4-trifluoromethyl-1H-pyrazole]
AGSTE herbicidal action (damage score 0-10): 0 | AMARE herbicidal action (damage score 0-10): 8 | DIGSA herbicidal action (damage score 0-10): 9 | POATR herbicidal action (damage score 0-10): 0 | SETIT herbicidal action (damage score 0-10): 9

Cn1cc(C(F)(F)F)c(CS(=O)(=O)C2=NOC(C)(C)C2F)n1 (stereo not drawn) [4.03, 3-(4-fluoro-5,5-dimethyl-4,5-dihydro-isoxazol-3-ylsulfonylmethyl)-1-methyl-4-trifluoromethyl-1H-pyrazole]
AGSTE herbicidal action (damage score 0-10): 10 | AMARE herbicidal action (damage score 0-10): 8 | DIGSA herbicidal action (damage score 0-10): 10 | POATR herbicidal action (damage score 0-10): 10 | SETIT herbicidal action (damage score 0-10): 7

CC(c1nn(C)cc1C(F)(F)F)S(=O)(=O)C1=NOC(C)(C)C1F (stereo not drawn) [4.04, 3-(1-(4-fluoro-5,5-dimethyl-4,5-dihydro-isoxazol-3-ylsulfonyl)-eth-1 yl)-1-methyl-4-trifluoromethyl-1H-pyrazole]
AGSTE herbicidal action (damage score 0-10): 10 | AMARE herbicidal action (damage score 0-10): 9 | DIGSA herbicidal action (damage score 0-10): 9 | POATR herbicidal action (damage score 0-10): 8 | SETIT herbicidal action (damage score 0-10): 9

Cn1nc(CS(=O)(=O)C2=NOC(C)(C)C2F)c(C(F)(F)F)c1C#N (stereo not drawn) [4.09]
AGSTE herbicidal action (damage score 0-10): 10 | AMARE herbicidal action (damage score 0-10): 9 | DIGSA herbicidal action (damage score 0-10): 7 | POATR herbicidal action (damage score 0-10): 4

COc1ncc(C[S+]([O-])C2=NOC(C)(C)C2F)c(C(F)(F)F)n1 (stereo not drawn) [5.02]
AGSTE herbicidal action (damage score 0-10): 10 | AMARE herbicidal action (damage score 0-10): 10 | DIGSA herbicidal action (damage score 0-10): 10 | POATR herbicidal action (damage score 0-10): 10

COc1ncc(CS(=O)(=O)C2=NOC(C)(C)C2F)c(C(F)(F)F)n1 (stereo not drawn) [5.03]
AGSTE herbicidal action (damage score 0-10): 10 | AMARE herbicidal action (damage score 0-10): 10 | DIGSA herbicidal action (damage score 0-10): 8 | POATR herbicidal action (damage score 0-10): 10

Cn1nc(C(F)(F)F)cc1CS(=O)(=O)C1=NOC(C)(C)C1F (stereo not drawn) [6.04]
AGSTE herbicidal action (damage score 0-10): 10 | AMARE herbicidal action (damage score 0-10): 9 | DIGSA herbicidal action (damage score 0-10): 9 | POATR herbicidal action (damage score 0-10): 10

Cn1nc(C(F)(F)F)c(Cl)c1CS(=O)(=O)C1=NOC(C)(C)C1F (stereo not drawn) [6.07]
AGSTE herbicidal action (damage score 0-10): 10 | AMARE herbicidal action (damage score 0-10): 7 | DIGSA herbicidal action (damage score 0-10): 9 | POATR herbicidal action (damage score 0-10): 10

Cn1nc(OC(F)F)cc1CS(=O)(=O)C1=NOC(C)(C)C1F (stereo not drawn) [6.10]
AGSTE herbicidal action (damage score 0-10): 10 | AMARE herbicidal action (damage score 0-10): 7 | DIGSA herbicidal action (damage score 0-10): 0 | POATR herbicidal action (damage score 0-10): 9

COc1cc(CS(=O)(=O)C2=NOC(C)(C)C2F)n(C)n1 (stereo not drawn) [6.13]
AGSTE herbicidal action (damage score 0-10): 10 | AMARE herbicidal action (damage score 0-10): 10 | DIGSA herbicidal action (damage score 0-10): 9 | POATR herbicidal action (damage score 0-10): 10

Cc1nn(C)nc1CS(=O)(=O)C1=NOC(C)(C)C1F (stereo not drawn) [7.04]
AGSTE herbicidal action (damage score 0-10): 10 | AMARE herbicidal action (damage score 0-10): 10 | DIGSA herbicidal action (damage score 0-10): 10 | POATR herbicidal action (damage score 0-10): 10 | SETIT herbicidal action (damage score 0-10): 9

C=CCn1nc(CS(=O)(=O)C2=NOC(C)(C)C2F)c(C(F)(F)F)n1 (stereo not drawn) [7.10]
AGSTE herbicidal action (damage score 0-10): 10 | AMARE herbicidal action (damage score 0-10): 10 | DIGSA herbicidal action (damage score 0-10): 10 | POATR herbicidal action (damage score 0-10): 10

CC1(C)ON=C(S(=O)(=O)Cc2nn(C3CCCC3)nc2C(F)(F)F)C1F (stereo not drawn) [7.14]
AGSTE herbicidal action (damage score 0-10): 10 | AMARE herbicidal action (damage score 0-10): 8 | DIGSA herbicidal action (damage score 0-10): 9 | POATR herbicidal action (damage score 0-10): 8

COCCn1nc(CS(=O)(=O)C2=NOC(C)(C)C2F)c(C(F)(F)F)n1 (stereo not drawn) [7.20]
AGSTE herbicidal action (damage score 0-10): 10 | AMARE herbicidal action (damage score 0-10): 10 | DIGSA herbicidal action (damage score 0-10): 10 | POATR herbicidal action (damage score 0-10): 10

Cn1ncc(CS(=O)(=O)C2=NOC(C)(C)C2F)n1 (stereo not drawn) [7.23]
AGSTE herbicidal action (damage score 0-10): 10 | AMARE herbicidal action (damage score 0-10): 5 | DIGSA herbicidal action (damage score 0-10): 9 | POATR herbicidal action (damage score 0-10): 9

CC(C)n1nc(CS(=O)(=O)C2=NOC(C)(C)C2F)c(C(F)(F)F)n1 (stereo not drawn) [7.27]
AGSTE herbicidal action (damage score 0-10): 9 | AMARE herbicidal action (damage score 0-10): 1 | DIGSA herbicidal action (damage score 0-10): 10 | POATR herbicidal action (damage score 0-10): 0

CCc1nn(C)nc1CS(=O)(=O)C1=NOC(C)(C)C1F (stereo not drawn) [7.33]
AGSTE herbicidal action (damage score 0-10): 10 | AMARE herbicidal action (damage score 0-10): 10 | DIGSA herbicidal action (damage score 0-10): 10 | POATR herbicidal action (damage score 0-10): 10

CCn1ncc(CS(=O)(=O)C2=NOC(C)(C)C2F)n1 (stereo not drawn) [7.36]
AGSTE herbicidal action (damage score 0-10): 9 | AMARE herbicidal action (damage score 0-10): 8 | DIGSA herbicidal action (damage score 0-10): 9 | POATR herbicidal action (damage score 0-10): 10

Cc1nn(C(C)C)nc1CS(=O)(=O)C1=NOC(C)(C)C1F (stereo not drawn) [7.39]
AGSTE herbicidal action (damage score 0-10): 10 | AMARE herbicidal action (damage score 0-10): 8 | DIGSA herbicidal action (damage score 0-10): 9 | POATR herbicidal action (damage score 0-10): 8

Cn1nc(C[S+]([O-])C2=NOC(C)(C)C2F)c(C(F)(F)F)n1 (stereo not drawn) [7.43]
AGSTE herbicidal action (damage score 0-10): 10 | AMARE herbicidal action (damage score 0-10): 10 | DIGSA herbicidal action (damage score 0-10): 10 | POATR herbicidal action (damage score 0-10): 10

Cn1nnc(Br)c1CS(=O)(=O)C1=NOC(C)(C)C1F (stereo not drawn) [11.03]
AGSTE herbicidal action (damage score 0-10): 10 | AMARE herbicidal action (damage score 0-10): 3 | DIGSA herbicidal action (damage score 0-10): 9 | POATR herbicidal action (damage score 0-10): 10

CC1(C)ON=C(S(=O)(=O)C(F)(F)c2ccccc2OC(F)(F)F)C1F (stereo not drawn) [Compound No. 1.12]
AGSTE herbicidal action (damage score 0-10): 10 | AMARE herbicidal action (damage score 0-10): 9 | DIGSA herbicidal action (damage score 0-10): 9 | POATR herbicidal action (damage score 0-10): 0 | SETIT herbicidal action (damage score 0-10): 8

CC1(C)ON=C(S(=O)(=O)C(Cl)c2ccccc2OC(F)(F)F)C1F (stereo not drawn) [Compound No. 1.13, 3-[chloro-(2-trifluoromethoxy-phenyl)-methanesulfonyl]-4-fluoro-5,5-dimethyl-4,5-dihydro-isoxazole]
AGSTE herbicidal action (damage score 0-10): 10 | AMARE herbicidal action (damage score 0-10): 9 | DIGSA herbicidal action (damage score 0-10): 9 | POATR herbicidal action (damage score 0-10): 10 | SETIT herbicidal action (damage score 0-10): 9

Cn1nc(C(F)(F)F)c(C[S+]([O-])C2=NOC(C)(C)C2Br)c1OC(F)F (stereo not drawn) [Compound No. 2.05, 4-bromo-3-(5-difluoromethoxy-1-methyl-3-trifluoromethyl-1H-pyrazol-4-ylmethylsulfinyl)-5,5-dimethyl-4,5-dihydro-isoxazole]
AGSTE herbicidal action (damage score 0-10): 9 | AMARE herbicidal action (damage score 0-10): 2 | DIGSA herbicidal action (damage score 0-10): 8 | POATR herbicidal action (damage score 0-10): 0 | SETIT herbicidal action (damage score 0-10): 9

Cn1nc(C(F)(F)F)c(CS(=O)(=O)C2=NOC(C)(C)C2Br)c1OC(F)F (stereo not drawn) [Compound No. 2.06, 4-Bromo-3-(5-difluoromethoxy-1-methyl-3-trifluoromethyl-1H-pyrazol-4-ylmethylsulfonyl)-5,5-dimethyl-4,5-dihydro-isoxazole]
AGSTE herbicidal action (damage score 0-10): 10 | AMARE herbicidal action (damage score 0-10): 7 | DIGSA herbicidal action (damage score 0-10): 8 | POATR herbicidal action (damage score 0-10): 9 | SETIT herbicidal action (damage score 0-10): 7

Cn1nc(C(F)(F)F)c(C[S+]([O-])C2=NOC(C)(C)C2Cl)c1OCC(F)(F)F (stereo not drawn) [Compound No. 2.14, 4-Chloro-5,5-dimethyl-3-[1-methyl-5-(2,2,2-trifluoro-ethoxy)-3-trifluoromethyl-1H-pyrazol-4-ylmethylsulfinyl]-4,5-dihydro-isoxazole]
AGSTE herbicidal action (damage score 0-10): 10 | AMARE herbicidal action (damage score 0-10): 9 | DIGSA herbicidal action (damage score 0-10): 9 | POATR herbicidal action (damage score 0-10): 10 | SETIT herbicidal action (damage score 0-10): 9

Cn1nc(C(F)(F)F)c(CSC2=NOC(C)(C)C2F)c1OC(F)F (stereo not drawn) [Compound No. 2.22]
AGSTE herbicidal action (damage score 0-10): 10 | AMARE herbicidal action (damage score 0-10): 9 | DIGSA herbicidal action (damage score 0-10): 9 | POATR herbicidal action (damage score 0-10): 9 | SETIT herbicidal action (damage score 0-10): 9

Cn1nc(C(F)(F)F)c(CSC2=NOC(C)(C)C2F)c1F (stereo not drawn) [Compound No. 2.54]
AGSTE herbicidal action (damage score 0-10): 10 | AMARE herbicidal action (damage score 0-10): 9 | DIGSA herbicidal action (damage score 0-10): 6 | POATR herbicidal action (damage score 0-10): 10

CC1(C)ON=C(SCc2cccnc2Cl)C1F (stereo not drawn) [Compound No. 3.04]
AGSTE herbicidal action (damage score 0-10): 8 | AMARE herbicidal action (damage score 0-10): 2 | DIGSA herbicidal action (damage score 0-10): 8 | POATR herbicidal action (damage score 0-10): 7

Cn1nc(C(F)(F)F)cc1CSC1=NOC(C)(C)C1F (stereo not drawn) [Compound No. 6.01]
AGSTE herbicidal action (damage score 0-10): 9 | AMARE herbicidal action (damage score 0-10): 0 | DIGSA herbicidal action (damage score 0-10): 8 | POATR herbicidal action (damage score 0-10): 0

Cn1nc(C(F)(F)F)c(Cl)c1CSC1=NOC(C)(C)C1F (stereo not drawn) [Compound No. 6.05]
AGSTE herbicidal action (damage score 0-10): 10 | AMARE herbicidal action (damage score 0-10): 0 | DIGSA herbicidal action (damage score 0-10): 5 | POATR herbicidal action (damage score 0-10): 4

Cn1nc(OC(F)F)cc1CSC1=NOC(C)(C)C1F (stereo not drawn) [Compound No. 6.08]
AGSTE herbicidal action (damage score 0-10): 9 | AMARE herbicidal action (damage score 0-10): 3 | DIGSA herbicidal action (damage score 0-10): 8 | POATR herbicidal action (damage score 0-10): 9
